This note sets out measurements from ChEMBL document CHEMBL1126501, “Differences in antiviral activities for isomers of a fluorinated cyclobutane nucleoside analog” (Bioorg Med Chem Lett, 1993).

pIC50: −log10 of the molar value. Bounds are passed on as bounds.

Type in all cases: functional, organism-based
In test [1] the test system is Human betaherpesvirus 5. The test can be described thus: In vitro antiviral activity was evaluated against HCMV using viral plaque reduction assay; Value ranges from 20-40. In general terms: In a plaque reduction assay, fewer plaques than in the control indicate reduced infectivity or spread.
Test [2] concerns Human alphaherpesvirus 1. The test can be described thus: In vitro antiviral activity was evaluated against HSV-1 using viral plaque reduction assay.
Another test has as its system Human alphaherpesvirus 2. The test can be described thus: In vitro antiviral activity was evaluated against HSV-2 using viral plaque reduction assay.
Test [3] has as its system Human betaherpesvirus 5. The test can be described thus: In vitro antiviral activity was evaluated against HCMV using viral plaque reduction assay.
For test [4], the system named is Human alphaherpesvirus 3. The test can be described thus: In vitro antiviral activity was evaluated against VZV using viral plaque reduction assay; Value ranges from 0.02-0.08.
The test system of test [5] is Human alphaherpesvirus 1. As to the kind of experiment: In vitro antiviral activity was evaluated against HSV-1 using viral plaque reduction assay; Value ranges from […].
The subject of test [6] is Human alphaherpesvirus 3. As to the kind of experiment: In vitro antiviral activity was evaluated against VZV using viral plaque reduction assay.
In test [7] the test system is Human alphaherpesvirus 1. The test can be described thus: In vitro antiviral activity was evaluated against HSV-1 using viral plaque reduction assay; Value ranges from 0.7-2.
The subject of test [8] is Human alphaherpesvirus 3. As to the kind of experiment: In vitro antiviral activity was evaluated against VZV using viral plaque reduction assay; Value ranges from 2-4.
For test [9], the system named is Human betaherpesvirus 5. As to the kind of experiment: In vitro antiviral activity was evaluated against HCMV using viral plaque reduction assay; Value ranges from 4-40.

Usually pIC50 stands for the IC50 on a negative log10 scale, so that one unit is a factor of ten. Consider `Nc1nc2c(ncn2COCCO)c(=O)[nH]1` [ACYCLOVIR], for which the pIC50 is 4.70 with Human betaherpesvirus 5 [1], 6.40 in the test on Human alphaherpesvirus 1 [2] and 6.40 in the test with Human alphaherpesvirus 2 (Human alphaherpesvirus 2).

In the case of `Nc1nc(O)c2ncn([C@@H]3C[C@H](CO)C3CO)c2n1` (mixture of isomers), the negative-log IC50 (pIC50) is 5.70 in the test with Human betaherpesvirus 5 [3], 7.70 in the test on Human alphaherpesvirus 3 [4], 7.40 with Human alphaherpesvirus 1 [5] and 7.40 in the test with Human alphaherpesvirus 2 (Human alphaherpesvirus 2).

Take `Nc1nc(O)c2ncn([C@@H]3C(F)[C@H](CO)C3CO)c2n1` (mixture of isomers; form 2): the pIC50 in the test on Human betaherpesvirus 5 [3], in the test with Human alphaherpesvirus 3 [6], with Human alphaherpesvirus 1 [2] and with Human alphaherpesvirus 2 was below 3.60 in each case.

As to `Nc1nc(O)c2ncn([C@@H]3C(F)[C@H](CO)C3CO)c2n1` (mixture of isomers; form 1), the negative-log IC50 (pIC50) was 6.15 in the test with Human alphaherpesvirus 1 [7], 5.70 in the test on Human alphaherpesvirus 3 [8], 5.40 in the test with Human betaherpesvirus 5 [9] and 6.15 in the test with Human alphaherpesvirus 2.
